# Results as given in ChEMBL document CHEMBL2390874, “Synthesis, antibacterial activity and cytotoxicity of new fused pyrazolo[1,5-a]pyrimidine and pyrazolo[5,1-c][1,2,4]triazine derivatives from new 5-aminopyrazoles” (Eur J Med Chem, 2013).
# Activity calls are given as the source filed them. The rule behind the calls is not given here.
# How the values were obtained:
# Salmonella typhimurium = test: Antibacterial activity against Salmonella typhimurium ATCC 51812 assessed as growth inhibition at 1 mg/ml after 24 hrs by agar diffusion method; assay type: functional, organism-based; conditions: Salmonella enterica subsp. enterica serovar Typhimurium
# Enterococcus faecalis = test: Antibacterial activity against Enterococcus faecalis ATCC 14506 assessed as growth inhibition at 1 mg/ml after 24 hrs by agar diffusion method; assay type: functional, organism-based
# [1] = system: Staphylococcus epidermidis; test: Antibacterial activity against Staphylococcus epidermidis ATCC 12228 assessed as growth inhibition at 1 mg/ml after 24 hrs by agar diffusion method; assay type: functional, organism-based
# Staphylococcus aureus [2] = test: Antibacterial activity against methicillin-resistant Staphylococcus aureus ATCC 43300 assessed as growth inhibition at 1 mg/ml after 24 hrs by agar diffusion method; assay type: functional, organism-based
# Pseudomonas aeruginosa [3] = test: Bactericidal activity against Pseudomonas aeruginosa ATCC 10145 by broth dilution method; assay type: functional
# Pseudomonas aeruginosa [4] = test: Antibacterial activity against Pseudomonas aeruginosa ATCC 10145 assessed as growth inhibition by broth dilution method; assay type: functional
# [5] = Selectivity index, ratio of CC50 for african green monkey vero cells to MIC for Escherichia coli ATCC 10536; assay type: functional
# [6] = Selectivity index, ratio of CC50 for african green monkey vero cells to MIC for Bacillus subtilis ATCC 11774; assay type: functional
# [7] = Selectivity index, ratio of CC50 for african green monkey vero cells to MIC for Staphylococcus aureus ATCC 25923; assay type: functional
# [8] = Cytotoxicity against african green monkey vero cells by MTT assay; assay type: cell-based; conditions: chlorocebus sabaeus
# Staphylococcus aureus [9] = test: Bactericidal activity against Staphylococcus aureus ATCC 25923 by broth dilution method; assay type: functional
# Escherichia coli [10] = test: Bactericidal activity against Escherichia coli ATCC 10536 by broth dilution method; assay type: functional
# Bacillus subtilis [11] = test: Bactericidal activity against Bacillus subtilis ATCC 11774 by broth dilution method; assay type: functional
# Escherichia coli [12] = test: Antibacterial activity against Escherichia coli ATCC 10536 assessed as growth inhibition by broth dilution method; assay type: functional
# Staphylococcus aureus [13] = test: Antibacterial activity against Staphylococcus aureus ATCC 25923 assessed as growth inhibition by broth dilution method; assay type: functional
# Serratia marcescens = test: Antibacterial activity against Serratia marcescens ATCC 13880 assessed as growth inhibition at 1 mg/ml after 24 hrs by agar diffusion method; assay type: functional; conditions: ATCC 13880, 24 h, read-out: DIZ
# Bacillus subtilis [14] = test: Antibacterial activity against Bacillus subtilis ATCC 11774 assessed as growth inhibition by broth dilution method; assay type: functional
# Pseudomonas aeruginosa [15] = test: Antibacterial activity against Pseudomonas aeruginosa ATCC 10145 assessed as growth inhibition at 1 mg/ml after 24 hrs by agar diffusion method; assay type: functional; conditions: ATCC 10145, 24 h, read-out: DIZ
# Escherichia coli [16] = test: Antibacterial activity against Escherichia coli ATCC 10536 assessed as growth inhibition at 1 mg/ml after 24 hrs by agar diffusion method; assay type: functional; conditions: ATCC 10536, 24 h, read-out: DIZ
# Staphylococcus aureus [17] = test: Antibacterial activity against Staphylococcus aureus ATCC 25923 assessed as growth inhibition at 1 mg/ml after 24 hrs by agar diffusion method; assay type: functional; conditions: ATCC 25923, 24 h, read-out: DIZ
# Bacillus subtilis [18] = test: Antibacterial activity against Bacillus subtilis ATCC 11774 assessed as growth inhibition at 1 mg/ml after 24 hrs by agar diffusion method; assay type: functional; conditions: ATCC 11774, 24 h, read-out: DIZ
compound,measurement,setting,value
Cc1cc(O)n2nc(N3CCCCC3)c(C#N)c2n1,growth inhibition (GI),Salmonella typhimurium,inactive
same,growth inhibition (GI),Enterococcus faecalis,inactive
same,growth inhibition (GI),[1],inactive
same,growth inhibition (GI),Staphylococcus aureus [2],inactive
Cc1cc(O)n2nc(N3CCCC3)c(C#N)c2n1,growth inhibition (GI),Salmonella typhimurium,inactive
same,growth inhibition (GI),Enterococcus faecalis,inactive
same,growth inhibition (GI),[1],inactive
same,growth inhibition (GI),Staphylococcus aureus [2],inactive
CC(=O)c1nnc2c(C#N)c(N3CCOCC3)nn2c1C,growth inhibition (GI),Salmonella typhimurium,inactive
same,growth inhibition (GI),Enterococcus faecalis,inactive
same,growth inhibition (GI),[1],inactive
same,growth inhibition (GI),Staphylococcus aureus [2],inactive
GENTAMICIN,MBC,Pseudomonas aeruginosa [3],0.002 mg/mL
same,MIC,Pseudomonas aeruginosa [4],0.001 mg/mL
CC(=O)c1nnc2c(C#N)c(N3CCCCC3)nn2c1C,Selectivity Index,[5],0.02
same,Selectivity Index,[6],0.02
same,Selectivity Index,[7],0.02
same,growth inhibition (GI),Salmonella typhimurium,inactive
same,growth inhibition (GI),Enterococcus faecalis,inactive
same,growth inhibition (GI),[1],inactive
same,CC50,[8],0.312 mg/mL
same,growth inhibition (GI),Staphylococcus aureus [2],inactive
same,MBC,Staphylococcus aureus [9],16 mg/mL
same,MBC,Escherichia coli [10],16 mg/mL
same,MBC,Bacillus subtilis [11],16 mg/mL
same,MIC,Escherichia coli [12],16 mg/mL
same,MIC,Staphylococcus aureus [13],16 mg/mL
same,zone of inhibition at 1000 µg/mL,Serratia marcescens,6 mm
same,MIC,Bacillus subtilis [14],16 mg/mL
same,zone of inhibition at 1000 µg/mL,Pseudomonas aeruginosa [15],6 mm
same,zone of inhibition at 1000 µg/mL,Escherichia coli [16],8 mm
same,zone of inhibition at 1000 µg/mL,Staphylococcus aureus [17],9 mm
same,zone of inhibition at 1000 µg/mL,Bacillus subtilis [18],10 mm
CSc1c(C#N)c(N)nc2c(C#N)c(N3CCCC3)nn12,growth inhibition (GI),Salmonella typhimurium,inactive
same,growth inhibition (GI),Enterococcus faecalis,inactive
same,growth inhibition (GI),[1],inactive
same,growth inhibition (GI),Staphylococcus aureus [2],inactive
Cc1ccc(C)n1-c1[nH]nc(N2CCOCC2)c1C#N,Selectivity Index,[5],0.06
same,Selectivity Index,[6],0.13
same,Selectivity Index,[7],0.06
same,growth inhibition (GI),Salmonella typhimurium,inactive
same,growth inhibition (GI),Enterococcus faecalis,inactive
same,growth inhibition (GI),[1],inactive
same,CC50,[8],0.254 mg/mL
same,growth inhibition (GI),Staphylococcus aureus [2],inactive
same,MBC,Staphylococcus aureus [9],4 mg/mL
same,MBC,Escherichia coli [10],8 mg/mL
same,MBC,Bacillus subtilis [11],4 mg/mL
same,MIC,Escherichia coli [12],4 mg/mL
same,MIC,Staphylococcus aureus [13],2 mg/mL
same,zone of inhibition at 1000 µg/mL,Serratia marcescens,6 mm
same,MIC,Bacillus subtilis [14],2 mg/mL
same,zone of inhibition at 1000 µg/mL,Pseudomonas aeruginosa [15],6 mm
same,zone of inhibition at 1000 µg/mL,Escherichia coli [16],10 mm
same,zone of inhibition at 1000 µg/mL,Staphylococcus aureus [17],10 mm
same,zone of inhibition at 1000 µg/mL,Bacillus subtilis [18],14 mm
N#Cc1c(N)nc2c(C#N)c(N3CCCC3)nn2c1N1CCCCC1,growth inhibition (GI),Salmonella typhimurium,inactive
same,growth inhibition (GI),Enterococcus faecalis,inactive
same,growth inhibition (GI),[1],inactive
same,growth inhibition (GI),Staphylococcus aureus [2],inactive
N#Cc1c(N)nc2c(C#N)c(N3CCOCC3)nn2c1N1CCOCC1,growth inhibition (GI),Salmonella typhimurium,inactive
same,growth inhibition (GI),Enterococcus faecalis,inactive
same,growth inhibition (GI),[1],inactive
same,growth inhibition (GI),Staphylococcus aureus [2],inactive
N#Cc1nnc2c(C#N)c(N3CCCC3)nn2c1N,growth inhibition (GI),Salmonella typhimurium,inactive
same,growth inhibition (GI),Enterococcus faecalis,inactive
same,growth inhibition (GI),[1],inactive
same,growth inhibition (GI),Staphylococcus aureus [2],inactive
CC(=O)n1nc(N2CCCCC2)c(C#N)c1N,Selectivity Index,[6],0.06
same,growth inhibition (GI),Salmonella typhimurium,inactive
same,growth inhibition (GI),Enterococcus faecalis,inactive
same,growth inhibition (GI),[1],inactive
same,CC50,[8],1.01 mg/mL
same,growth inhibition (GI),Staphylococcus aureus [2],inactive
same,MBC,Staphylococcus aureus [9],> 16 mg/mL
same,MBC,Escherichia coli [10],16 mg/mL
same,MBC,Bacillus subtilis [11],16 mg/mL
same,MIC,Escherichia coli [12],16 mg/mL
same,MIC,Staphylococcus aureus [13],16 mg/mL
same,zone of inhibition at 1000 µg/mL,Serratia marcescens,6 mm
same,MIC,Bacillus subtilis [14],16 mg/mL
same,zone of inhibition at 1000 µg/mL,Pseudomonas aeruginosa [15],6 mm
same,zone of inhibition at 1000 µg/mL,Escherichia coli [16],10 mm
same,zone of inhibition at 1000 µg/mL,Staphylococcus aureus [17],10 mm
same,zone of inhibition at 1000 µg/mL,Bacillus subtilis [18],6 mm
